Data on seven compounds can be found in patent publication US20220242853A1, “MODIFIED CYANINE DYES AND CONJUGATES THEREOF” (BRACCO IMAGING S.P.A., priority 2019, published 2022).

The nature of series [1]: Biodistribution and elimination by optical imaging after intravenous administration. It is filed as in vivo, Balb/c nu/nu mice. The note with it: ex vivo, 24 hours after iv 1 nmol/mouse. The protocol:
Biodistribution and elimination of the fluorescent agents of the invention was evaluated by optical imaging after intravenous administration in male Balb/c nu/nu mice, 6-10 weeks of age (Charles River Laboratories). Briefly, mice housed 4 per cage and fed with VRF1 (P) sterile diet (Special Diets Services Ltd) up to the end of the acclimation period (5 days). Then, AIN-76a rodent diet irradiated (Research Diets), a special diet that reduces auto-fluorescence, was used up to the end of the experiments. Imaging experiments were performed using the preclinical optical system IVIS Spectrum (Perkin Elmer).
In vivo imaging was performed under gas anesthesia (Sevofluorane 6-8% in oxygen). Animals were intravenously injected with the compounds and imaged longitudinally at 30 min, 1 h, 2 h, 3 h, 4 h, 6 h, and 24 h post-administration. Thus, animals were euthanized by anesthesia overdose, and the main tissues and organs of interest were excised for ex vivo optical imaging. Regions of interest (ROIs) were drawn on the tissues of interest for each fluorescence image at every time point to evaluate signal intensity (expressed as Average adiant Efficiency). The ratio between the fluorescence signal in the muscle (background tissue) and excretory organs (kidney, liver) was then calculated to assess the contrast. The tissue half-life was calculated by fitting the fluorescence signal decay in the muscle with a bi-exponential decay equation model using GraphPad Prism Software (version 5 for Windows).

Series [2] deals with T1, human recombinant integrin αvβ3 (Homo sapiens, UniProt P05106+P06756).
T1 construct: purchased R&D Systems
In words: Integrin receptor affinity ELISA (vitronectin-coated plates). It is filed as binding. Background: ELISA stands for enzyme-linked immunosorbent assay.

Series [3] in a line: Optical properties: excitation/emission maxima and absolute fluorescence quantum yield. The format is physicochemical. As for the experimental part: Analysis were performed with a Waters Atlantis dC18 5 μm, 4.6×150 mm column using a gradient of phase A CH3COONH4 10 mM and phase B acetonitrile. Measured mass/charge ratios are listed for each compound. A dual-beam UV-VIS spectrophotometer (Lambda 40, Perkin Elmer) was used to determine the absorbance (Abs) of the compounds of the invention. […] The measurements were performed using an excitation wavelength at maximum absorbance of different dyes, and the sample was excited with a […] Xenon Light Source. Detection was performed by photomultiplier tubes (PMT-NIR) cooled detector or by TBX-04 detector. Dye solutions were carefully prepared to have an absorbance lower than 0.1 (optical densities) to minimize re-absorption phenomena. The compounds of the invention have been characterized in terms of their optical properties in vitro in aqueous medium (i.e., water/PBS pH 7.4) and in a clinical chemistry control serum (Seronorm, Sero SA), mimicking the chemical composition and optical properties of human serum. All dye or dye-conjugate solutions were freshly prepared.

Series [4] concerns the target T2, human serum albumin (HSA) (Homo sapiens, UniProt P02768).
T2 construct: purchased Sigma Aldrich A9511
The series is described as follows: Binding affinity to human serum albumin (absorbance peak shift or ultrafiltration method). Particulars: for Kd: phosphate buffer, 25° C., one of the two methods, read-out: HSA affinity (KA) (converted). The protocol:
Binding affinity to human serum albumin (HSA; Sigma Aldrich, A9511) was measured using two methods, according to the level of binding affinity of the compounds.
The first method, optimal for compounds which strongly interact with HSA, is based on the analysis of the absorbance spectrum peak shift after the incubation of the dye in solutions containing HSA. Briefly, the samples were incubated at a fixed concentration (1 μM) with HSA dilutions (1×10^−6-4×10^−4M), in phosphate buffer for 5 min in the spectrophotometer at 25° C. before measurements. The measure was performed at the maximum absorbance wavelength of the shifted peak.
The second method, optimal for compound with low affinity for HSA, is based on measuring the variation of the absorbance of solutions containing the dye and various concentrations of HSA after ultrafiltration. Briefly, each compound was incubated at a fixed concentration (2 μM) with HSA dilutions (1×10^−6-4×10^−4 M), in phosphate buffer. The samples were centrifuged (10,000 g for 30 min at 25° C.) in a Microcon device (10 kDa MWCO, Amicon Ultra-0.5 Centrifugal Filter Unit with Ultracel-10 membrane, Millipore) and the absorbance measurements of the filtrates were obtained with the spectrophotometer at the maximum absorbance wavelength of the fluorophore.
For both methods, the affinity constant (KA, M^−1) was calculated by fitting the raw data with the following formula:
wherein ΔA/b=Absorbance measured (b=1 cm) KRL=KA calculated by regression analysis (curve fitting) Δε·Rt calculated by regression analysis (curve fitting) [L]=Albumin concentration
In the first method, ΔA/b corresponds to the absorbance measured for each sample, whereas in the second method ΔA/b is obtained subtracting the absorbance of the control sample (dye without HSA) to the absorbance of each other sample.
However, the measurement of the affinity constant is more precise when the suitable method is used as a function of the affinity level of the compound.

The subject of series [5] is WM-266-4 human melanoma cells. In words: Cell uptake by flow cytometry (FACS). The format is cell-based. The protocol: The human melanoma cell line WM-266-4 (ATCC, CRL-1676) was used as in vitro model to assess the cell uptake of representative integrin-binding Compounds 1 and 3, based on the high expression of the integrin receptors, particularly αvβ3, on the membrane of these cells (Capasso et al., PlosOne 2014).
Adherent cells at about 70% confluence were incubated with the compounds 1 or 3 (1 μM) for 2h at 37° C. (5% CO2) in presence of Dulbecco's Modified Eagle's Medium (DMEM) supplemented with 10% FBS, 2 mM glutamine, 100 IU/mL penicillin and 100 μg/mL streptomycin. After two washing steps with PBS, cells were detached using 0.1 mM EDTA in PBS, centrifuged and suspended in buffer (PBS, 0.5% BSA, 0.1% NaN3) for flow cytometry experiments. Fluorescence Activated Cell Sorting (FACS) was used to detect the fluorescence signal within the cells, as measure of cell uptake. Samples were excited with an Argon laser and the emission detected using a 670 nm longpass filter. Values of fluorescence intensity were obtained from the histogram statistic produced by the instrument software.
The residual internalization was calculated by considering the value of fluorescence intensity in absence of the competitor as 100%.
Furthermore, to assess the effect of biological fluids on the cell uptake, parallel experiments were performed incubating the cells with a compounds of the invention in presence of human serum from male AB plasma (Sigma Aldrich, H4522) or human albumin (Sigma Aldrich, A9511). The residual internalization was calculated by considering the value of fluorescence intensity in absence of the serum as 100%. Such uptake assessment also represents an indication of the percentage of compound which is sequestered by the plasma proteins, in particular albumin, when it diffuses through the vascular compartment before reaching the tissue of interest and the particular targeted receptor.
Background: In flow cytometry, cells or beads pass a laser one at a time.

Turning to `CC(CC[N+]1=C(/C=C/C=C/C=C/C=C2/N(CCCCCC(=O)NCC3C[C@@H]4CC[C@H]5C(=O)N[C@@H](CCCNC(=N)N)C(=O)NCC(=O)N[C@@H](CC(=O)O)C(=O)N[C@H]3C(=O)N45)c3ccc(C(=O)NCC(O)C(O)C(O)C(O)CO)cc3C2(C)C)C(C)(C)c2cc(C(=O)NCC(O)C(O)C(O)C(O)CO)ccc21)S(=O)(=O)[O-]` (stereo partly drawn) [Compound 3], in series [1], the “Kidney to muscle ratio” value is 2.90 ± 0.55 and the “Liver to muscle ratio” value is recorded as 2.50 ± 0.32. For the same compound, the IC50 in series [2] was 0.00264 ± 0.00035 µM. In series [3] (PBS pH 7.4), the “Max Em” value came to 785 nm, the “Max Ex” value came out at 757 nm and the “Φ (absolute fluorescence quantum yield)” value was 10.6%. For the same compound, the “Φ (absolute fluorescence quantum yield)” value in series [3] (Seronorm control serum) was 11.7%. Also, the Kd in series [4] was 238 µM. In addition, the “Residual cell uptake in presence of human serum” value in series [5] (1 μM, 2h at 37° C., uptake without serum = 100%) stood at 75%. The “Residual uptake in the presence of c(RGDfK) as competitor” value in series [5] (100 μM c(RGDfK), uptake without competitor = 100%) came out at 15%.

With `CC(CC[N+]1=C(/C=C/C=C/C=C/C=C2/N(CCCCCC(=O)O)c3ccc(C(=O)NCC(O)C(O)C(O)C(O)CO)cc3C2(C)C)C(C)(C)c2cc(C(=O)NCC(O)C(O)C(O)C(O)CO)ccc21)S(=O)(=O)[O-]` (stereo not drawn) [Compound 4], in series [3] (PBS pH 7.4), the “Max Em” value was 785 nm, the “Max Ex” value was 755 nm and the “Φ (absolute fluorescence quantum yield)” value is reported as 8.9%. The “Φ (absolute fluorescence quantum yield)” value in series [3] (Seronorm control serum) stood at 13.4%. In series [4], the Kd was 196 µM.

As to `CC1(C)C(/C=C/C=C/C=C2/N(CCCCCC(=O)O)c3ccc(C(=O)NCC(O)C(O)C(O)C(O)CO)cc3C2(C)C)=[N+](CCCCS(=O)(=O)[O-])c2ccc(C(=O)NCC(O)C(O)C(O)C(O)CO)cc21` (stereo not drawn) [Compound 6], in series [3] (PBS pH 7.4), the “Max Em” value turned out to be 675 nm, the “Max Ex” value amounted to 656 nm and the “Φ (absolute fluorescence quantum yield)” value is listed as 35.6%. Also, the “Φ (absolute fluorescence quantum yield)” value in series [3] (Seronorm control serum) stood at 35.9%. In addition, the Kd in series [4] is greater than 1000 µM.

Take `CC1(C)C(/C=C/C=C/C=C2/N(CCCCCC(=O)O)c3ccc(C(=O)NC(CO)(CO)CO)cc3C2(C)C)=[N+](CCCCS(=O)(=O)[O-])c2ccc(C(=O)NC(CO)(CO)CO)cc21` [Compound 7]: in series [3] (PBS pH 7.4), the “Max Em” value turned out to be 675 nm, the “Max Ex” value was determined as 655 nm and the “Φ (absolute fluorescence quantum yield)” value amounted to 35.1%. Moreover, in series [3] (Seronorm control serum), the “Φ (absolute fluorescence quantum yield)” value was 35.1%. Besides, the Kd in series [4] is 289 µM.

Take `CC1(C)C(/C=C/C=C/C=C/C=C2\N(CCCCS(=O)(=O)O)c3ccc4ccccc4c3C2(C)C)=[N+](CCCCS(=O)(=O)[O-])c2ccc3ccccc3c21` [ICG, Indocyanine Green, reference compound]: in series [3] (PBS pH 7.4), the “Max Em” value is given as 810 nm, the “Max Ex” value turned out to be 780 nm and the “Φ (absolute fluorescence quantum yield)” value is 1.5%. Also, the “Φ (absolute fluorescence quantum yield)” value in series [3] (Seronorm control serum) worked out at 7.8%. Moreover, in series [4], the Kd was 2.88 µM.

For the compound `CN1/C(=C/C=C/C=C/C2=[N+](CCCCCC(=O)O)c3ccc(S(=O)(=O)[O-])cc3C2(C)C)C(C)(C)c2cc(S(=O)(=O)O)ccc21` [Sulfo-Cy5, reference compound], in series [3] (PBS pH 7.4), the “Max Em” value was determined as 665 nm, the “Max Ex” value was determined as 645 nm and the “Φ (absolute fluorescence quantum yield)” value worked out at 27.0%. Moreover, the “Φ (absolute fluorescence quantum yield)” value in series [3] (Seronorm control serum) turned out to be 35.6%.

“IRDye 800CW carboxylate [reference compound]”: the results for the “HSA KA” value in series [4] (first method (absorbance peak shift)) and in series [4] (second method (ultrafiltration)) were 215,000 M^−1 and 216,000 M^−1, respectively.

Usually IC50 stands for the midpoint of a concentration-inhibition curve.
